According to ChEMBL document CHEMBL3885861, “Open TG-GATES”:

Organism: Rattus norvegicus
Assay: Open TG-GATES - Regimen: Single
Type: toxicity, organism-based, Sprague-Dawley
Design: regimen Single, gender Male, age 6 weeks
Settings: in vivo, po, 300 mg/kg, route gavage, dose level Middle; for APTT / Bas / Eos / Fbg / Hb / Ht / Lym / MCH / MCHC / MCV / Mono / Neu / PT / Plat / RBC / Ret / WBC: tissue Blood; for KIDNEY_L / KIDNEY_R / KIDNEY_TOTAL: tissue Kidney; for LIVER: tissue Liver; for A/G / ALP / ALT / AST / BUN / CRE / Ca / Cl / DBIL / GLC / IP / K / LDH / Na / PL / RALB / TBIL / TC / TG / TP / gamma-GTP: tissue Plasma

`O=C(O)COc1nn(Cc2ccccc2)c2ccccc12` [BENDAZAC] was tested, and the TERMINAL_BW (3 h) was 210.1 g, the APTT (3 h) was 17.4 s and the Bas (3 h) was 0%. For the same compound, the Eos (3 h) was 1%, the Fbg (3 h) was 206.8 mg/dL and the Hb (3 h) was 13.9 g/dL. For the same compound, the Ht (3 h) was 41.6%, the Lym (3 h) was 80.4% and the MCH (3 h) was 21.7 pg. The MCHC (3 h) was 33.5%, the MCV (3 h) was 64.7 fL and the Mono (3 h) was 5.2%. For the same compound, the Neu (3 h) was 13.4%, the PT (3 h) was 11.7 s and the Plat (3 h) was 116.9 x10_4/uL. For the same compound, the RBC (3 h) was 643.4 x10_4/ul, the Ret (3 h) was 9.9% and the WBC (3 h) was 91 x10_2/uL. For the same compound, the KIDNEY_L (3 h) was 1 g, the KIDNEY_R (3 h) was 1 g and the KIDNEY_TOTAL (3 h) was 2 g. For the same compound, the LIVER (3 h) was 9.4 g, the A/G (3 h) was 2.1 and the ALP (3 h) was 1450 IU/L. For the same compound, the ALT (3 h) was 35.6 IU/L, the AST (3 h) was 69.2 IU/L and the BUN (3 h) was 11.8 mg/dL. The CRE (3 h) was 0.5 mg/dL, the Ca (3 h) was 10.6 mg/dL and the Cl (3 h) was 101 meq/L. The DBIL (3 h) was 0.014 mg/dL, the GLC (3 h) was 189.2 mg/dL and the IP (3 h) was 10.5 mg/dL. It also gave a K (3 h) of 4.9 meq/L, an LDH (3 h) of 105 IU/L and a Na (3 h) of 139.4 meq/L. It also gave a PL (3 h) of 124.4 mg/dL, an RALB (3 h) of 3.6 g/dL and a TBIL (3 h) of 1.3 mg/dL. For the same compound, the TC (3 h) was 71.6 mg/dL, the TG (3 h) was 46 mg/dL and the TP (3 h) was 5.4 g/dL. The gamma-GTP (3 h) was 1 IU/L, the TERMINAL_BW (6 h) was 207.7 g and the APTT (6 h) was 17.2 s. For the same compound, the Bas (6 h) was 0%, the Eos (6 h) was 1.4% and the Fbg (6 h) was 214.8 mg/dL. The Hb (6 h) was 13.9 g/dL, the Ht (6 h) was 41.7% and the Lym (6 h) was 78.2%. It also gave an MCH (6 h) of 21.7 pg, an MCHC (6 h) of 33.3% and an MCV (6 h) of 65.1 fL. For the same compound, the Mono (6 h) was 7.8%, the Neu (6 h) was 13% and the PT (6 h) was 11.9 s. The Plat (6 h) was 119.6 x10_4/uL, the RBC (6 h) was 641.8 x10_4/ul and the Ret (6 h) was 11.7%. The WBC (6 h) was 98.8 x10_2/uL, the KIDNEY_L (6 h) was 1 g and the KIDNEY_R (6 h) was 1 g. The KIDNEY_TOTAL (6 h) was 2 g, the LIVER (6 h) was 8.9 g and the A/G (6 h) was 2.3. It also gave an ALP (6 h) of 3422.2 IU/L, an ALT (6 h) of 30.2 IU/L and an AST (6 h) of 60.8 IU/L. The BUN (6 h) was 8.8 mg/dL, the CRE (6 h) was 0.6 mg/dL and the Ca (6 h) was 10.9 mg/dL. For the same compound, the Cl (6 h) was 101.8 meq/L, the DBIL (6 h) was 0.066 mg/dL and the GLC (6 h) was 189.6 mg/dL. The IP (6 h) was 10.7 mg/dL, the K (6 h) was 4.9 meq/L and the LDH (6 h) was 97 IU/L. It also gave a Na (6 h) of 141.2 meq/L, a PL (6 h) of 135.4 mg/dL and an RALB (6 h) of 3.8 g/dL. The TBIL (6 h) was 1.5 mg/dL, the TC (6 h) was 78.2 mg/dL and the TG (6 h) was 27 mg/dL. The TP (6 h) was 5.4 g/dL, the gamma-GTP (6 h) was 1 IU/L and the TERMINAL_BW (9 h) was 200.4 g. The APTT (9 h) was 17.2 s, the Bas (9 h) was 0% and the Eos (9 h) was 1%. The Fbg (9 h) was 205 mg/dL, the Hb (9 h) was 14 g/dL and the Ht (9 h) was 41.8%. It also gave a Lym (9 h) of 81.8%, an MCH (9 h) of 22.3 pg and an MCHC (9 h) of 33.4%. It also gave an MCV (9 h) of 66.8 fL, a Mono (9 h) of 5.2% and a Neu (9 h) of 12%. For the same compound, the PT (9 h) was 11.8 s, the Plat (9 h) was 121.4 x10_4/uL and the RBC (9 h) was 626.2 x10_4/ul. It also gave a Ret (9 h) of 8.8%, a WBC (9 h) of 86.7 x10_2/uL and a KIDNEY_L (9 h) of 0.9 g. The KIDNEY_R (9 h) was 1 g, the KIDNEY_TOTAL (9 h) was 1.9 g and the LIVER (9 h) was 7.8 g. It also gave an A/G (9 h) of 2.1, an ALP (9 h) of 2047.2 IU/L and an ALT (9 h) of 29 IU/L. It also gave an AST (9 h) of 60.2 IU/L, a BUN (9 h) of 9.6 mg/dL and a CRE (9 h) of 0.6 mg/dL. It also gave a Ca (9 h) of 10.3 mg/dL, a Cl (9 h) of 103.6 meq/L and a DBIL (9 h) of 0.028 mg/dL. It also gave a GLC (9 h) of 183.8 mg/dL, an IP (9 h) of 10 mg/dL and a K (9 h) of 4.7 meq/L. The LDH (9 h) was 94.4 IU/L, the Na (9 h) was 143 meq/L and the PL (9 h) was 126 mg/dL. For the same compound, the RALB (9 h) was 3.7 g/dL, the TBIL (9 h) was 1.2 mg/dL and the TC (9 h) was 72.4 mg/dL. It also gave a TG (9 h) of 39.4 mg/dL, a TP (9 h) of 5.5 g/dL and a gamma-GTP (9 h) of 1.2 IU/L. The TERMINAL_BW (24 h) was 220.3 g, the APTT (24 h) was 16.8 s and the Bas (24 h) was 0%. It also gave an Eos (24 h) of 1%, a Fbg (24 h) of 208.6 mg/dL and a Hb (24 h) of 13.6 g/dL. The Ht (24 h) was 40.7%, the Lym (24 h) was 78.6% and the MCH (24 h) was 21.3 pg. For the same compound, the MCHC (24 h) was 33.3%, the MCV (24 h) was 63.9 fL and the Mono (24 h) was 9.6%. It also gave a Neu (24 h) of 11%, a PT (24 h) of 12.2 s and a Plat (24 h) of 120.5 x10_4/uL. The RBC (24 h) was 637.8 x10_4/ul, the Ret (24 h) was 8% and the WBC (24 h) was 98.3 x10_2/uL. It also gave a KIDNEY_L (24 h) of 1 g, a KIDNEY_R (24 h) of 1 g and a KIDNEY_TOTAL (24 h) of 2 g. The LIVER (24 h) was 11.3 g, the A/G (24 h) was 2.2 and the ALP (24 h) was 1529.6 IU/L. For the same compound, the ALT (24 h) was 39 IU/L, the AST (24 h) was 71.2 IU/L and the BUN (24 h) was 19.8 mg/dL. It also gave a CRE (24 h) of 0.6 mg/dL, a Ca (24 h) of 11 mg/dL and a Cl (24 h) of 104 meq/L. It also gave a DBIL (24 h) of 0.006 mg/dL, a GLC (24 h) of 187.2 mg/dL and an IP (24 h) of 6.3 mg/dL. For the same compound, the K (24 h) was 4.5 meq/L, the LDH (24 h) was 123.4 IU/L and the Na (24 h) was 140 meq/L. For the same compound, the PL (24 h) was 132 mg/dL, the RALB (24 h) was 3.8 g/dL and the TBIL (24 h) was 1 mg/dL. The TC (24 h) was 66.8 mg/dL, the TG (24 h) was 111 mg/dL and the TP (24 h) was 5.5 g/dL. The gamma-GTP (24 h) was 1 IU/L.
